Data: ChEMBL document CHEMBL3046296, “Development of a New Herbicide, Indanofan” (J Pestic Sci, 2004)

What was measured:
Echinochloa oryzicola [1] = experiment: Pre-emergence herbicide activity against Echinochloa oryzicola up to three-leaf stage; format: functional
Echinochloa oryzicola [2] = experiment: Pre-emergence herbicide activity against Echinochloa oryzicola after 42 days; format: functional
Echinochloa crus-galli = experiment: Pre-emergence herbicide activity against Echinochloa crus-galli (barnyard grass) up to 3-leaf stage; format: functional
[3] = Octanol-water partition co-efficient, log P of the compound in water at 25 degC; format: physicochemical
Poa annua = experiment: Pre-emergence herbicide activity against Poa annua up to two-leaf stage; format: functional
Zoysia matrella = experiment: Pre-emergence herbicide activity against Zoysia matrella measured 7 days after planting; format: functional

SMILES: CCC1(CC2(c3cccc(Cl)c3)CO2)C(=O)c2ccccc2C1=O (stereo not drawn) [(RS)-INDANOFAN]
- Activity (Echinochloa oryzicola [1]): 0.15 KgAi/ha
- Activity (Echinochloa oryzicola [2]): 0.15 KgAi/ha
- Activity (Echinochloa crus-galli): 0.15 KgAi/ha
- logP [3]: 3.59
- Activity (Poa annua): 0.5 KgAi/ha
- Activity (Zoysia matrella): 1 KgAi/ha
